This is an account of results in patent publication US20150225369A1, “DDR2 INHIBITORS FOR THE TREATMENT OF OSTEOARTHRITIS” (Merck Patent GmbH, priority 2012, published 2015).

Experiment [1] concerns the target T1, His-tagged human recombinant DDR-2 kinase domain (His-TEV-DDR2 467-855 aa) (Homo sapiens, UniProt Q16832).
T1 construct: His-TEV-DDR2 467-855 aa
T1 sequence (Q16832 467-855): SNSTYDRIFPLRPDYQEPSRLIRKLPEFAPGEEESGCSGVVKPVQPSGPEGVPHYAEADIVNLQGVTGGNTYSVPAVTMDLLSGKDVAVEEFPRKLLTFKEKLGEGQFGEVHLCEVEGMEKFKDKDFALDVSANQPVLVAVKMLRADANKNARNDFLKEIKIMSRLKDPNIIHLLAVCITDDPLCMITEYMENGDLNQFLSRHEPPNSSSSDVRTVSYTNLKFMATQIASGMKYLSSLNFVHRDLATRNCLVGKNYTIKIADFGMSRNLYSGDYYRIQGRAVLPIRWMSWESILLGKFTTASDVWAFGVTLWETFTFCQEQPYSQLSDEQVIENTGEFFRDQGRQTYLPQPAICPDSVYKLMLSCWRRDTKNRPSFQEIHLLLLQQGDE
Nature of the experiment: Autophosphorylation assay for biochemical activity testing of DDR2 (HTRF). The note with it: 4 nM DDR2 kinase domain, 150 μM ATP, 150 min at 22° C. A digest of the protocol:
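Phospho-tyrosine was detected by HTRF between XL665 anti-6His and cryptate anti-phosphotyrosine PT66 antibodies, using the emission ratio. Inhibition was referenced to the inhibitor-free reaction.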
(TR-FRET usually uses a lanthanide donor and a delayed reading to cut background.)

The target of experiment [2] is T2, HEK293 transfected with human DDR2 (Homo sapiens, UniProt Q16832).
T2 construct: expressed in transfected cells; host or cells: HEK293 (PLT460F_(DDR2)-P7-1)
T2 sequence (Q16832 22-855): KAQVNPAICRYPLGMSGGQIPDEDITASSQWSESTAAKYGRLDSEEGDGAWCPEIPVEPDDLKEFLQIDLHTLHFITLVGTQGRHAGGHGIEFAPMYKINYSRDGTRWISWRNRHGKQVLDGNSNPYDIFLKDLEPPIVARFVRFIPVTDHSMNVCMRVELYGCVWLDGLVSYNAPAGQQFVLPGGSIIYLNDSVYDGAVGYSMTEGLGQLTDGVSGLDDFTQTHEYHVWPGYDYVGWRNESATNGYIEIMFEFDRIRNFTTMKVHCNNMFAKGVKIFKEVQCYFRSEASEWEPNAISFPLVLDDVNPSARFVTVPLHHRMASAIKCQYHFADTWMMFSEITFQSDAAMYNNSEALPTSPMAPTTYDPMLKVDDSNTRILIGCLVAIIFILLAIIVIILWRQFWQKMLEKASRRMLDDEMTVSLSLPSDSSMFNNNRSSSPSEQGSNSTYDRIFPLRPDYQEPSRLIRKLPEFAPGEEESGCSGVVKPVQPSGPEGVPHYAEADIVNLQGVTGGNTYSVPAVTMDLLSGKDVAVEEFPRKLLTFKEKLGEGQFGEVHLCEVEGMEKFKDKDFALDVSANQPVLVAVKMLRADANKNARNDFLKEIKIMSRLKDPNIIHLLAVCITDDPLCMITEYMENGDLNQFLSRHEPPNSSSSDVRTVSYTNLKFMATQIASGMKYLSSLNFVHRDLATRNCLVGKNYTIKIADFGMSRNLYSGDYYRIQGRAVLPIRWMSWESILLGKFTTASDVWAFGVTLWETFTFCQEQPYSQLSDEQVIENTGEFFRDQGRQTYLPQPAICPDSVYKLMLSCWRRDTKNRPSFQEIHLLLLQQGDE
Briefly: Phospho-DDR2 cellular assay (collagen II induced DDR2 phosphorylation, ELISA). The format is cell-based. The note with it: HEK293 transfected with human DDR2, 50 μg/ml chicken collagen II, 16 h; read-out: IC50 [p-DDR2]. A digest of the protocol: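 Cells seeded 48 h in 10% FBS, serum-starved 8 h, then given compound (5% DMSO) with 50 μg/ml chicken collagen II for 16 h at 37 °C. Lysates captured on anti-DDR2 antibody plates; phospho-DDR2 detected with HRP anti-phosphotyrosine antibody by chemiluminescence.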

As for `Cc1cc(Oc2ccc(CNC(=O)Nc3cc(C(F)(F)F)cn(C)c3=O)cc2C)ccn1` [compound 6], the values for the IC50 in experiment [1] and in experiment [2] were 110 nM and 30 nM, respectively.
As for `CNC(=O)c1cc(Oc2ccc(CNC(=O)Nc3cc(C(F)(F)F)cn(C)c3=O)cc2C)ccn1` [compound 7], the IC50 (in general, the concentration that inhibits the measured activity by half) in experiment [1] stood at 37 nM; in experiment [2], 12 nM.
For `CNC(=O)c1cc(Oc2ccc(CNC(=O)Nc3cc(C(F)(F)F)cn(C)c3=O)cc2)ccn1` [compound 8], the IC50 in experiment [1] worked out at 97 nM; in experiment [2], 28 nM.
In the case of `COc1ncc(C)cc1NC(=O)NCc1ccc(Oc2ccncc2)cc1` [compound 18], the figures for the IC50 in experiment [1] and in experiment [2] were 100 nM and 30 nM, respectively.
Take `CNC(=O)c1cc(Oc2ccc(CNC(=O)Nc3cc(C)cnc3OC)cc2)ccn1` [compound 19]: the IC50 in experiment [1] stood at 63 nM; in experiment [2], 24 nM.
Consider `CNC(=O)c1cc(Oc2ccc(CNC(=O)Nc3cc(Cl)cnc3OC)cc2)ccn1` [compound 21], for which the IC50 in experiment [1] turned out to be 44 nM; in experiment [2] it was 14 nM.
For `CNC(=O)c1cc(Oc2ccc(CNC(=O)Nc3cc(Cl)cnc3OC)cc2C)ccn1` [compound 23], in that order: 37 nM and 6.8 nM.
For `CNC(=O)c1cc(Oc2ccc(CNC(=O)Nc3cc(C(F)(F)F)cnc3Cl)cc2C)ccn1` [compound 26], in that order: 52 nM and 43 nM.
As to `COc1ncc(Cl)cc1NC(=O)NCc1ccc(Oc2ccnc(C)c2)c(C)c1` [compound 28], the IC50 in experiment [1] was 110 nM; in experiment [2] it was 17 nM.
Consider `Cc1cc(Oc2ccc(CNC(=O)Nc3cc(C(F)(F)F)cnc3Cl)cc2C)ccn1` [compound 30], for which the IC50 in experiment [1] was 100 nM; in experiment [2], 60 nM.
